Converted amounts (≈) assume the structure as drawn.
Key:
MCF7 = experiment: Cytotoxicity against human MCF7 cells after 7 days by MTT assay; type: functional; conditions: MCF7, 168 h, read-out: ED50 (the source's name)
PC-3 = experiment: Cytotoxicity against human PC3 cells after 7 days by MTT assay; type: functional; conditions: PC-3, 168 h, read-out: ED50 (the source's name)
Aedes aegypti = experiment: Cytotoxicity against yellow fever mosquitoes; type: functional
[1] = Toxicity against brine shrimp larvae; type: organism-based; conditions: artemia, in vivo
A498 = experiment: Cytotoxicity against human A498 cells after 7 days by MTT assay; type: functional; conditions: A498, 168 h, read-out: ED50 (the source's name)
A549 = experiment: Cytotoxicity against human A549 cells after 7 days by MTT assay; type: functional; conditions: A549, 168 h, read-out: ED50 (the source's name)
MIA PaCa-2 = experiment: Cytotoxicity against human MIAPaCa2 cells after 7 days by MTT assay; type: functional; conditions: MIA PaCa-2, 168 h, read-out: ED50 (the source's name)
HT-29 = experiment: Cytotoxicity against human HT-29 cells after 7 days by MTT assay; type: functional; conditions: HT-29, 168 h, read-out: ED50 (the source's name)

Structure (SMILES)	EC50 (MCF7) [µg/mL]	EC50 (PC-3) [µg/mL]	LC50 (Aedes aegypti) [µg/mL]	LC50 [1] [µg/mL]	EC50 (A498) [µg/mL]	EC50 (A549) [µg/mL]	EC50 (MIA PaCa-2) [µg/mL]	EC50 (HT-29) [µg/mL]
CC(=O)O[C@H]1C[C@@H](OC(C)=O)[C@@]2(C)CO[C@@H]3[C@@H](O)[C@@]4(C)C5=CC[C@@H](c6ccoc6)[C@]5(C)CC[C@@H]4[C@]1(C)[C@@H]32	2.42 (≈ 4.72 µM)	2.78 (≈ 5.42 µM)	29.2 (≈ 56.9 µM)	10 (≈ 19.5 µM)	3.35 (≈ 6.53 µM)	3.29 (≈ 6.42 µM)	3.06 (≈ 5.97 µM)	3.73 (≈ 7.28 µM)
CC(=O)O[C@H]1C[C@@H](OC(=O)c2ccccc2)C(C)(C)[C@@H]2C[C@@H](OC(C)=O)[C@@]3(C)C4=CC[C@@H](C5COC(C)(C)C(=O)C(=O)C5)[C@]4(C)CC[C@@H]3[C@@]12C (some centres not stated)	6.13 (≈ 8.87 µM)	0.0281 (≈ 0.0407 µM)	–	–	4.78 (≈ 6.92 µM)	1.07 (≈ 1.55 µM)	0.013 (≈ 0.0188 µM)	6.25 (≈ 9.05 µM)
CC(=O)O[C@H]1C[C@@H](OC(=O)c2ccccc2)C(C)(C)[C@@H]2C[C@@H](OC(C)=O)[C@@]3(C)C4=CC(=O)[C@@H](C5COC(C)(C)C(=O)C(=O)C5)[C@]4(C)CC[C@@H]3[C@@]12C (some centres not stated) [16,23,24-TRIKETOMELIANIN B]	2.61 (≈ 3.7 µM)	2.1 (≈ 2.98 µM)	–	–	4.15 (≈ 5.89 µM)	18.2 (≈ 25.8 µM)	3.32 (≈ 4.71 µM)	6.36 (≈ 9.02 µM)
COc1cccc2c1C(=O)c1c(O)c3c(c(O)c1C2=O)C[C@@](O)(C(=O)CO)C[C@@H]3O[C@H]1C[C@H](N)[C@H](O)[C@H](C)O1 [DOXORUBICIN]	0.253 (≈ 0.465 µM)	0.0276 (≈ 0.0508 µM)	–	–	0.00424 (≈ 0.0078 µM)	–	0.0133 (≈ 0.0245 µM)	0.0351 (≈ 0.0646 µM)
CC(=O)O[C@H]1C[C@@H](OC(=O)c2ccccc2)C(C)(C)[C@@H]2C[C@@H](OC(C)=O)[C@@]3(C)C4=CC[C@@H](C5COC(C)(C)[C@@H](O)[C@H](O)C5)[C@]4(C)CC[C@@H]3[C@@]12C (some centres not stated) [MELIANIN B]	3.29 (≈ 4.73 µM)	0.393 (≈ 0.566 µM)	> 100	> 100	3.67 (≈ 5.28 µM)	1.68 (≈ 2.42 µM)	2.09 (≈ 3.01 µM)	2.15 (≈ 3.09 µM)
CC(=O)O[C@H]1C[C@@H](OC(=O)c2ccccc2)C(C)(C)[C@@H]2C[C@@H](OC(C)=O)[C@@]3(C)C4=CC[C@@H](C5COC(=O)C5)[C@]4(C)CC[C@@H]3[C@@]12C (some centres not stated) [MELIANIN C]	14.5 (≈ 23.3 µM)	0.473 (≈ 0.762 µM)	–	–	26.5 (≈ 42.7 µM)	21.9 (≈ 35.2 µM)	20.6 (≈ 33.2 µM)	18.1 (≈ 29.1 µM)
CC(=O)O[C@@H]1C[C@H](OC(=O)c2ccccc2)[C@@]2(C)[C@H]3[C@H](OC[C@]13C)[C@@H](O)[C@@]1(C)C3=CC[C@@H](c4ccoc4)[C@]3(C)CC[C@@H]12 [MELIAVOLKININ]	27.8 (≈ 48.4 µM)	1.02 (≈ 1.77 µM)	59.7 (≈ 104 µM)	5.37 (≈ 9.34 µM)	26.9 (≈ 46.8 µM)	25.4 (≈ 44.1 µM)	16.7 (≈ 29.1 µM)	28.1 (≈ 48.8 µM)

Source: ChEMBL document CHEMBL1158849, “New bioactive triterpenoids from Melia volkensii” (J Nat Prod, 1998)
